In general, Ki refers to the equilibrium dissociation constant of an inhibitor or competing ligand from its target. What is called Km is the substrate concentration at which the rate is half of its maximum.

Series [1] has as its target T1, Peroxisomal sarcosine oxidase (Homo sapiens) (UniProt Q9P0Z9).
T1 sequence (whole entry): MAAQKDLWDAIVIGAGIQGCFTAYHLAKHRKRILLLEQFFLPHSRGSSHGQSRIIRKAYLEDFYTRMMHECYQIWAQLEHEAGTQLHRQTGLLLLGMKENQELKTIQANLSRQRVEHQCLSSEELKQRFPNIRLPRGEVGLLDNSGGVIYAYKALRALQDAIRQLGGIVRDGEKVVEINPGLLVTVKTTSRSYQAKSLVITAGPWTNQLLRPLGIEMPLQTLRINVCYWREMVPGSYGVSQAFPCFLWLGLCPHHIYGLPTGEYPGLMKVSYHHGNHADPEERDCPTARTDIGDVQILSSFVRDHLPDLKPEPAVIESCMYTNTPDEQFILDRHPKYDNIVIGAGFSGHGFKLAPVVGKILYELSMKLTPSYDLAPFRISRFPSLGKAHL
As to the kind of experiment: Kinetic parameter was evaluated for L-pipecolate oxidase. The note with it: Cercopithecidae.

The target of series [2] is T2, Peroxisomal sarcosine oxidase (Homo sapiens, UniProt Q9P0Z9).
T2 sequence (Q9P0Z9 whole entry): T1 sequence (whole entry)
The series is described as follows: Time and concentration dependent inhibition of L-pipecolate oxidase was determined by the compound. Also noted: species or system Cercopithecidae.

Series [3] addresses T1, Peroxisomal sarcosine oxidase (Homo sapiens). As to the kind of experiment: Kinetic parameter was evaluated for L-pipecolate oxidase was expressed as K observed. The note with it: Cercopithecidae.
Series [4] shares this target. As to the kind of experiment: Kinetic parameter was evaluated for L-pipecolate oxidase in Frozen Rhesus monkey liver ith L-PA as substrate. The note with it: Cercopithecidae, target entry is the homologue from another species. Format: tissue-based.
The nature of series [5]: Partition ratio was calculated from the ratio of kcat/kinact.
Series [6] concerns the target T1, Peroxisomal sarcosine oxidase (Homo sapiens). As to the kind of experiment: (§1) Kinetic parameter was evaluated for L-pipecolate oxidase using the peroxidase-coupled assay. To be noted: Cercopithecidae.
Substrate in series [7]: O=C(O)[C@@H]1CCSCN1
The series is described as §1. The note with it: Cercopithecidae.

Where “and” joins values, the source holds several entries; their conditions need not be identical. Identical values can stand only once.

Take `O=C(O)[C@@H]1CCSCN1`: the K inact in series [1] worked out at 0.06 min⁻¹. The affinity in series [2] corresponds to a Ki of 36 mM. Moreover, in series [3], the k obs is 4.01e-05 s⁻¹ and 4.26e-05 s⁻¹. Besides, the k cat in series [4] turned out to be 0.13 s⁻¹; in series [6] it was 0.085 s⁻¹. The Ratio in series [5] was 85.

B1: Peroxisomal sarcosine oxidase (Homo sapiens), Q9P0Z9 (protein)
chain: T1 sequence (whole entry)
For the molecule B1, the Km in series [7] is 940 µM.

The values above are taken from ChEMBL document CHEMBL1129844, “Mechanism-based inactivation of l-pipecolate oxidase by a sulfur-containing substrate analog, 5-thia-l-pipecolic acid” (Bioorg Med Chem Lett, 1997).
